From ChEMBL document CHEMBL3044744, “Antifeedant effects of marine halogenated monoterpenes” (J Agric Food Chem, 2002)
Converted amounts (≈) assume the structure as drawn. The source made the active and inactive calls. No cut-off for these calls is given here.

Legend:
[1] = system: Leptinotarsa decemlineata; experiment: Antifeedant activity against adult of Leptinotarsa decemlineata in […] by choice test; assay type: functional, organism-based
Spodoptera littoralis [2] = experiment: Antifeedant activity against L6 larvae of Spodoptera littoralis in Solanum tuberosum by choice test; assay type: functional, organism-based
Hordeum vulgare = experiment: Phytotoxicity against Hordeum vulgare (barley) assessed as photosynthetic efficiency in leaf; assay type: organism-based; conditions: in vivo
Rhopalosiphum padi [3] = experiment: Antifeedant activity against adult of Rhopalosiphum padi in Hordeum vulgare by choice test; assay type: functional, organism-based
Myzus persicae [4] = experiment: Antifeedant activity against adult of Myzus persicae (green peach aphid) in Hordeum vulgare by choice test; assay type: functional, organism-based
Rhopalosiphum padi [5] = experiment: Antifeedant activity against adult of Rhopalosiphum padi in barley leaf assessed as salivation time at 10 ug/cm2 after 2 hr by electronic recording; assay type: functional
Rhopalosiphum padi [6] = experiment: Antifeedant activity against adult of Rhopalosiphum padi in barley leaf assessed as ingestion time at 10 ug/cm2 after 2 hr by electronic recording; assay type: functional
Rhopalosiphum padi [7] = experiment: Antifeedant activity against adult of Rhopalosiphum padi in barley leaf assessed as ingestion time at 2 ug/cm2 after 2 hr by electronic recording; assay type: functional
Rhopalosiphum padi [8] = experiment: Antifeedant activity against adult of Rhopalosiphum padi in barley leaf assessed as noningestion time at 2 ug/cm2 after 2 hr by electronic recording; assay type: functional
Rhopalosiphum padi [9] = experiment: Antifeedant activity against adult of Rhopalosiphum padi in barley leaf assessed as noningestion time at 1 ug/cm2 after 2 hr by electronic recording; assay type: functional
Rhopalosiphum padi [10] = experiment: Antifeedant activity against adult of Rhopalosiphum padi in barley leaf assessed as salivation time at 2 ug/cm2 after 2 hr by electronic recording; assay type: functional
Rhopalosiphum padi [11] = experiment: Antifeedant activity against adult of Rhopalosiphum padi in barley leaf assessed as noningestion time at 10 ug/cm2 after 2 hr by electronic recording; assay type: functional
Rhopalosiphum padi [12] = experiment: Antifeedant activity against adult of Rhopalosiphum padi in barley leaf assessed as salivation time at 1 ug/cm2 after 2 hr by electronic recording; assay type: functional
Rhopalosiphum padi [13] = experiment: Antifeedant activity against adult of Rhopalosiphum padi in barley leaf assessed as ingestion time at 1 ug/cm2 after 2 hr by electronic recording; assay type: functional
Rhopalosiphum padi [14] = experiment: Antifeedant activity against adult of Rhopalosiphum padi in Hordeum vulgare assessed as total settling at 50 ug/cm2 by choice test; assay type: functional
Rhopalosiphum padi [15] = experiment: Antifeedant activity against adult of Rhopalosiphum padi in Hordeum vulgare assessed as total settling at 10 ug/cm2 by choice test; assay type: functional
Myzus persicae [16] = experiment: Antifeedant activity against adult of Myzus persicae (green peach aphid) in Hordeum vulgare assessed as total settling at 10 ug/cm2 by choice test; assay type: functional
[17] = Cytotoxicity against Spodoptera frugiperda (fall armyworm) Sf9 cells after 48 hr by MTT assay; assay type: cell-based; conditions: read-out: ED50
Myzus persicae [18] = experiment: Antifeedant activity against adult of Myzus persicae (green peach aphid) in Hordeum vulgare assessed as total settling at 50 ug/cm2 by choice test; assay type: functional
[19] = Cytotoxicity against Cricetulus griseus CHO (Chinese hamster ovary) cells after 48 hr by MTT assay; assay type: cell-based; conditions: read-out: ED50
Rhopalosiphum padi [20] = experiment: Insecticidal activity against adult of Rhopalosiphum padi in Hordeum vulgare assessed as mortality at 2 to 10 ug/cm2 by choice test; assay type: functional
Myzus persicae [21] = experiment: Insecticidal activity against adult of Myzus persicae (green peach aphid) in Hordeum vulgare at 50 ug/cm2 by choice test; assay type: functional
Spodoptera littoralis [22] = experiment: Insecticidal activity against adult of Spodoptera littoralis in Solanum tuberosum at 50 ug/cm2 by choice test; assay type: functional, organism-based
[23] = system: Leptinotarsa decemlineata; experiment: Insecticidal activity against adult of Leptinotarsa decemlineata in […] at 2 ug/cm2 by choice test; assay type: functional, organism-based
[24] = system: Leptinotarsa decemlineata; experiment: Insecticidal activity against adult of Leptinotarsa decemlineata assessed as mortality at 10 ug/insect treated as hemolymph injection measured up to 3 days; assay type: functional

Row | Structure (SMILES) | EC50 [1] | Activity (Spodoptera littoralis [2]) | Activity (Hordeum vulgare) | EC50 (Rhopalosiphum padi [3]) | EC50 (Myzus persicae [4]) | further results
1 | CC(=O)O[C@H]1C[C@H](C(C)(Br)CCl)O[C@@]1(C)/C(Cl)=C/Br (some centres undefined) | 17.1 nmol/cm2 | inactive | Non-toxic | > 100 nmol/cm2 | 50 nmol/cm2 | 
2 | CC(=O)O[C@H]1C[C@@H](C(C)(Br)CCl)O[C@@]1(C)/C(Cl)=C/Br (some centres undefined) |  | inactive | Non-toxic | > 100 nmol/cm2 |  | 
3 | CC1=CCC(C(C)(Cl)CCl)OC1C(Br)Br (centres undefined) | 8.3 nmol/cm2 | inactive | Non-toxic | > 100 nmol/cm2 | > 100 nmol/cm2 | 
4 | CC(=O)OC(C/C=C(/C)C(Cl)C(Br)Br)C(C)(Br)CCl (centres undefined) | 70 nmol/cm2 | inactive | Non-toxic | 70 nmol/cm2 |  | 
5 | CC1=C[C@](C)(/C=C/Cl)C=CC1=O | 21.2 nmol/cm2 | inactive | Non-toxic | 200 nmol/cm2 | 200 nmol/cm2 | 
6 | C=C1C[C@](C)(/C=C/Cl)[C@H](Cl)C[C@H]1Cl | 12.9 nmol/cm2 | inactive | Non-toxic | 44.2 nmol/cm2 | 7.1 nmol/cm2 | 
7 | C[C@]1(/C=C/Cl)C[C@@](C)(Cl)[C@H](Cl)C[C@H]1Cl | 30.1 nmol/cm2 | inactive | Non-toxic | 63 nmol/cm2 | > 100 nmol/cm2 | 
8 | C[C@@]1(Cl)C[C@@](C)(/C=C/Cl)[C@H](Cl)C[C@H]1Cl | 13 nmol/cm2 | inactive | Non-toxic | 15.9 nmol/cm2 | 1 nmol/cm2 | 
9 | C[C@]1(/C=C/Cl)C[C@](Cl)(CBr)[C@@H](Br)C[C@H]1Cl | 39.3 nmol/cm2 | inactive | Non-toxic | 1.2 nmol/cm2 | 1 nmol/cm2 | Time (Rhopalosiphum padi [5]): 0 min; Time (Rhopalosiphum padi [6]): 0 min; Time (Rhopalosiphum padi [7]): 0 min; Time (Rhopalosiphum padi [8]): 60 min; Time (Rhopalosiphum padi [9]): 48 min; Time (Rhopalosiphum padi [10]): 0 min; Time (Rhopalosiphum padi [11]): 60 min; Time (Rhopalosiphum padi [12]): 12 min; Time (Rhopalosiphum padi [13]): 0.1 min
10 | CC(C)=CCC/C(C)=C/CC/C(C)=C/CO [FARNESOL] | 107.3 nmol/cm2 |  |  | 7.9 nmol/cm2 | 67.1 nmol/cm2 | 
11 | CC(Br)(CCl)[C@H]1C[C@H](O)[C@](C)(/C(Cl)=C/Br)O1 (some centres undefined) [FUROPLOCAMIOID A] | 18.9 nmol/cm2 | inactive | Non-toxic | > 100 nmol/cm2 |  | 
12 | CC(Br)(CCl)[C@@H]1C[C@H](O)[C@](C)(/C(Cl)=C/Br)O1 (some centres undefined) [FUROPLOCAMIOID C] | 19.1 nmol/cm2 | inactive | Non-toxic | 1.6 nmol/cm2 | 3.7 nmol/cm2 | Activity (Rhopalosiphum padi [14]): 50%; Activity (Rhopalosiphum padi [15]): 17%; Activity (Myzus persicae [16]): 17%; CC50 at 48 h [17]: 0.03 µg/mL (≈ 0.0756 µM); Activity (Myzus persicae [18]): <50%; CC50 at 48 h [19]: 8.09 µg/mL (≈ 20.4 µM)
13 | Cl[C@H]1[C@H](Cl)[C@@H](Cl)[C@@H](Cl)[C@H](Cl)[C@H]1Cl [LINDANE] | 0.1 nmol/cm2 |  |  |  |  | EC50 (Spodoptera littoralis [2]): 16.8 nmol/cm2; mortality (Rhopalosiphum padi [20]): >50%; mortality at 50 µg/cm2 (Myzus persicae [21]): 100%; Activity (Spodoptera littoralis [22]): Active; CC50 at 48 h [17]: 0.001 µg/mL (≈ 0.00344 µM); Activity [23]: Active; CC50 at 48 h [19]: > 100 µg/mL; mortality [24]: 100%
14 | C[C@]1(/C=C/Cl)C[C@@](C)(Cl)[C@H](Cl)C[C@@H]1Cl [MERTENSENE] | 150 nmol/cm2 | inactive | Non-toxic | 16.6 nmol/cm2 | 150 nmol/cm2 | Time (Rhopalosiphum padi [5]): 45 min; Time (Rhopalosiphum padi [6]): 0 min; Time (Rhopalosiphum padi [7]): 1 min; Time (Rhopalosiphum padi [8]): 15 min; Time (Rhopalosiphum padi [9]): 17 min; Time (Rhopalosiphum padi [10]): 48 min; Time (Rhopalosiphum padi [11]): 15 min; Time (Rhopalosiphum padi [12]): 40 min; Time (Rhopalosiphum padi [13]): 3 min
15 | CC1=CCC(C(C)(C)Cl)OC1C(Br)Br (centres undefined) [PANTONEURINE AB] | 2.4 nmol/cm2 | inactive | Non-toxic | > 100 nmol/cm2 | 100 nmol/cm2 | 
16 | C=C(C)[C@@H]1[C@H]2OC(=O)[C@@H]1[C@]1(O)C[C@H]3O[C@]34C(=O)O[C@H]2[C@]14C [PICROTOXININ] | 27.5 nmol/cm2 |  |  | > 100 nmol/cm2 | > 100 nmol/cm2 | 
17 | CC(=C/C[C@@H](O)[C@](C)(Br)CCl)/C(Cl)=C/Br [PREFUROPLOCAMIOID] | > 100 nmol/cm2 | inactive | Non-toxic | 38.9 nmol/cm2 | 25.3 nmol/cm2 | 
18 | Cc1ccc(C(C)C)c(O)c1 [THYMOL] | 3.6 nmol/cm2 |  |  | 23.7 nmol/cm2 | 30.9 nmol/cm2 | 
19 | C[C@]1(/C=C/Cl)C[C@](Cl)(CBr)[C@@H](Cl)C[C@H]1Cl [VIOLACENE] | 140 nmol/cm2 | inactive | Non-toxic | 2.5 nmol/cm2 | 5.1 nmol/cm2 | Time (Rhopalosiphum padi [5]): 0 min; Time (Rhopalosiphum padi [6]): 0 min; Time (Rhopalosiphum padi [7]): 0 min; Time (Rhopalosiphum padi [8]): 59.5 min; Activity (Rhopalosiphum padi [14]): 50%; Time (Rhopalosiphum padi [9]): 51.8 min; Activity (Rhopalosiphum padi [15]): 17%; Time (Rhopalosiphum padi [10]): 0.5 min; Time (Rhopalosiphum padi [11]): 60 min; Time (Rhopalosiphum padi [12]): 8 min; Activity (Myzus persicae [16]): 17%; CC50 at 48 h [17]: 0.023 µg/mL (≈ 0.0648 µM); Activity (Myzus persicae [18]): <50%; CC50 at 48 h [19]: 29.8 µg/mL (≈ 84.1 µM); mortality [24]: 80%; Time (Rhopalosiphum padi [13]): 0.2 min
